Earlier results as cited in paper PMC6838683, “Discovery of Human Signaling Systems: Pairing Peptides to G Protein-Coupled Receptors” (Cell, 2019).
Like-named read-outs stand apart in the source and are kept apart here.

Tested on: human GPCRs
Parameters: method as in Guide to Pharmacology database
Conditions: max reported value, ref Guide to Pharmacology database, cited from earlier work
From the text: Supplement mmc1.xlsx, sheet "HumanGPCRLigands" | column: pKi_value; pKd_value; pEC50_value; pIC50_value

[1] = receptor p2ry2_human (P2RY2), P2Y receptors
[2] = receptor p2ry4_human (P2RY4), P2Y receptors
[3] = receptor p2y11_human (P2RY11), P2Y receptors
[4] = receptor gp183_human (GPR183), Class A orphans
[5] = receptor LTB4R2 (lt4r2_human, Q9NPC1)
[6] = receptor LTB4R (lt4r1_human, Q15722)
[7] = receptor p2ry1_human (P2RY1), P2Y receptors
[8] = receptor p2y13_human (P2RY13), P2Y receptors
[9] = receptor grm2_human (GRM2, Q14416)
[10] = receptor grm3_human (GRM3, Q14832)
[11] = receptor grm7_human (GRM7, Q14831)
[12] = receptor grm8_human (GRM8, O00222)
[13] = receptor CYSLTR1 (cltr1_human, Q9Y271)
[14] = receptor CYSLTR2 (cltr2_human, Q9NS75)
[15] = receptor fpr2_human (FPR2, P25090)
[16] = receptor PTAFR (ptafr_human, P25105)
[17] = receptor PTGDR2 (pd2r2_human, Q9Y5Y4)
[18] = receptor PTGDR (pd2r_human, Q13258)
[19] = receptor pe2r2_human (PTGER2), Prostanoid receptors
[20] = receptor pe2r4_human (PTGER4), Prostanoid receptors
[21] = receptor pf2r_human (PTGFR), Prostanoid receptors
[22] = receptor pe2r1_human (PTGER1), Prostanoid receptors
[23] = receptor pe2r3_human (PTGER3), Prostanoid receptors
[24] = receptor ta2r_human (TBXA2R), Prostanoid receptors

For `O=c1ccn([C@@H]2O[C@H](CO[P@@](=O)(O)O[P@@](=O)(O)OP(=O)(O)O)[C@@H](O)[C@H]2O)c(=O)[nH]1` (stereo in doubt) [uridine triphosphate], the pEC50_value [1] is listed as 8.1, the pEC50_value [2] is listed as 6.3 and the pEC50_value (receptor p2ry6_human (P2RY6), P2Y receptors) is listed as 5.2. For the same compound, the pEC50_value [3] was 5.2.

For `CCCCCC(O)CC(=O)O` (stereo not drawn) [3-hydroxyoctanoic acid], the pEC50_value (receptor hcar3_human (HCAR3), Hydroxycarboxylic acid receptors) is listed as 5.1.

In the case of `CCCCCCCC/C=C\C/C=C\C=C/C(=O)CCCC(=O)O` [5-oxo-C20:3], the pEC50_value (receptor OXER1 (oxer1_human, Q8TDS5)) is listed as 8.

In the case of `C[C@H](CCCC(C)(C)O)[C@H]1CC[C@H]2[C@@H]3[C@H](O)C=C4C[C@@H](O)CC[C@]4(C)[C@H]3CC[C@]12C` [7α,25-dihydroxycholesterol], the pEC50_value [4] is listed as 9.9 and the pIC50_value [4] is listed as 9.6.

For `CCCCCC(O)C=CC=CCC=CCCCC(=O)O` (stereo not drawn) [12-hydroxyheptadecatrienoic acid], the pEC50_value [5] is given as 7.7 and the pIC50_value [5] is given as 8.6.

For `C[C@]12CC[C@@H]3c4ccc(O)cc4CC[C@H]3[C@@H]1CC[C@@H]2O` [17β-estradiol], the pKi_value (receptor gper1_human (GPER1), Estrogen (G protein-coupled) receptors) is given as 8.5.

In the case of `O=C(O)CCC[C@H](O)\C=C/C=C/C=C/[C@H](O)C/C=C\CCCCCO` [20-hydroxy-LTB4], the pKi_value [6] is listed as 8.1.

For `NC[C@H](O)c1ccc(O)c(O)c1` [(-)-noradrenaline], the pKi_value (receptor ada1a_human (ADRA1A, P35348)) is listed as 6.4, the pKi_value (receptor ada1b_human (ADRA1B, P35368)) is listed as 6.2 and the pKi_value (receptor ada1d_human (ADRA1D, P25100)) is listed as 7.4. The pKi_value (receptor ada2a_human (ADRA2A, P08913)) was 7.4, the pKi_value (receptor ada2b_human (ADRA2B, P18089)) was 6 and the pKi_value (receptor ada2c_human (ADRA2C, P18825)) was 6.8. For the same compound, the pKi_value (receptor adrb1_human (ADRB1, P08588)) was 6, the pKi_value (receptor adrb2_human (ADRB2, P07550)) was 4.8 and the pKi_value (receptor adrb3_human (ADRB3, P13945)) was 6.3.

For `Nc1ncnc2c1ncn2[C@@H]1O[C@H](COP(=O)(O)OP(=O)(O)O)[C@@H](O)[C@H]1O` [ADP], the pIC50_value [7] is given as 7.2, the pKi_value (receptor p2y12_human (P2RY12), P2Y receptors) is given as 5.9 and the pIC50_value [8] is given as 6.5.

In the case of `Nc1ncnc2c1ncn2[C@@H]1O[C@H](COP(=O)(O)OP(=O)(O)OP(=O)(O)O)[C@@H](O)[C@H]1O` [ATP], the pIC50_value [7] is listed as 7.8, the pKi_value [7] is listed as 4.8 and the pEC50_value [1] is listed as 7.1. The pEC50_value [2] was 5.4, the pKd_value [2] was 6.2 and the pEC50_value [3] was 5.6. The pIC50_value [8] was 5.4.

In the case of `N[C@@H](CCC(=O)O)C(=O)O` [L-glutamic acid], the pEC50_value (receptor grm1_human (GRM1, Q13255)) is given as 5, the pEC50_value [9] is given as 5.4 and the pKi_value [9] is given as 4.9. The pEC50_value [10] was 5.4, the pKi_value [10] was 7.4 and the pEC50_value (receptor grm4_human (GRM4, Q14833)) was 5.5. For the same compound, the pEC50_value (receptor grm5_human (GRM5, P41594)) was 5.5, the pEC50_value (receptor grm6_human (GRM6, O15303)) was 5.2 and the pEC50_value [11] was 3. The pKi_value [11] was 3.1, the pEC50_value [12] was 5.6 and the pIC50_value [12] was 5.7.

For `C[C@H](O)C(=O)O` [L-lactic acid], the pEC50_value (receptor hcar1_human (HCAR1), Hydroxycarboxylic acid receptors) is listed as 2.9.

For `CCCCC/C=C\C[C@@H](O)/C=C/C=C/C=C\[C@@H](O)CCCC(=O)O` [LTB4], the pEC50_value [5] is given as 6.8, the pIC50_value [5] is given as 7.6 and the pKd_value [5] is given as 7.6. The pKi_value [6] was 9.4.

In the case of `CCCCC/C=C\C\C=C/C=C/C=C/[C@@H](SC[C@H](NC(=O)CC[C@H](N)C(=O)O)C(=O)NCC(=O)O)[C@@H](O)CCCC(=O)O` [LTC4], the pEC50_value [13] is listed as 7.7, the pIC50_value [13] is listed as 6.5 and the pKi_value [13] is listed as 8.1. For the same compound, the pEC50_value [14] was 7.3 and the pIC50_value [14] was 8.5.

For `CCCCC/C=C\C\C=C/C=C/C=C/[C@@H](SC[C@H](N)C(=O)NCC(=O)O)[C@@H](O)CCCC(=O)O` [LTD4], the pEC50_value [13] is given as 8.5, the pIC50_value [13] is given as 8.1 and the pEC50_value [14] is given as 7.4. The pIC50_value [14] was 8.1 and the pKi_value [14] was 8.1.

For `CCCCC/C=C\C\C=C/C=C/C=C/[C@@H](SC[C@H](N)C(=O)O)[C@@H](O)CCCC(=O)O` [LTE4], the pEC50_value [13] is listed as 6.7, the pIC50_value [13] is listed as 7 and the pKi_value [13] is listed as 7.8. The pEC50_value [14] was 5.9, the pIC50_value [14] was 5.7 and the pKi_value [14] was 6.5.

In the case of `CCCCC[C@H](O)/C=C/C=C\C=C\C=C\[C@@H](O)[C@@H](O)CCCC(=O)O` [LXA4], the pEC50_value [15] is given as 12 and the pKd_value [15] is given as 9.3.

In the case of `CCCCCCCC/C=C\CCCCCCCC(=O)NCCO` [N-oleoylethanolamide], the pEC50_value (receptor GPR119 (gp119_human, Q8TDV5)) is given as 6.3.

In the case of `CCCCCCCCCCCCCCCCOC[C@H](COP(=O)([O-])OCC[N+](C)(C)C)OC(C)=O` [PAF], the pIC50_value [16] is given as 8.2 and the pKi_value [16] is given as 7.9.

In the case of `CCCCC[C@H](O)/C=C/[C@H]1C(=O)C[C@H](O)[C@@H]1C/C=C\CCCC(=O)O` [PGD2], the pKi_value [17] is listed as 8.6, the pKi_value [18] is listed as 9.2 and the pKi_value (receptor PTGER1 (pe2r1_human, P34995)) is listed as 4.7. For the same compound, the pKi_value [19] was 5, the pEC50_value [20] was 8.8 and the pKi_value [20] was 9. For the same compound, the pKi_value [21] was 7.7.

In the case of `CCCCC[C@H](O)/C=C/[C@H]1[C@H](O)CC(=O)[C@@H]1C/C=C\CCCC(=O)O` [PGE2], the pKi_value [17] is given as 5.3, the pKi_value [18] is given as 7 and the pKi_value [22] is given as 8. For the same compound, the pKi_value [19] was 8.3, the pKd_value [23] was 8.7 and the pKi_value [23] was 9.5. The pEC50_value [20] was 6.1, the pKi_value [20] was 9.1 and the pKi_value [21] was 6.9. For the same compound, the pKi_value [24] was 4.5.

For `CCCCC[C@H](O)/C=C/[C@@H]1[C@@H](C/C=C\CCCC(=O)O)[C@@H](O)C[C@H]1O` [PGF2α], the pKi_value [17] is given as 6.4, the pKi_value [18] is given as 6.4 and the pKi_value [22] is given as 6.3. For the same compound, the pKi_value [19] was 6, the pKi_value [23] was 7.4 and the pEC50_value [20] was 6.1. The pKi_value [20] was 9.5, the pKi_value [21] was 8.5 and the pKi_value [24] was 5.1.

For `CCCCC[C@H](O)/C=C/[C@@H]1[C@H]2C/C(=C/CCCC(=O)O)O[C@H]2C[C@H]1O` [PGI2], the pKi_value [22] is listed as 4.8, the pKi_value [20] is listed as 5.1 and the pKi_value (receptor pi2r_human (PTGIR), Prostanoid receptors) is listed as 7.8.

For `CCCCC[C@H](O)/C=C/[C@H]1C(=O)C=C[C@@H]1C/C=C\CCCC(=O)O` [PGJ2], the pKi_value [17] is listed as 8.2 and the pKi_value [18] is listed as 9.

For `CCCCC/C=C\C/C=C\C/C=C\C/C=C\CCCC(=O)OC(CO)CO` [Peptide 2-arachidonoylglycerol], the pKi_value (receptor CNR2 (cnr2_human, P34972)) is given as 6.8.

For `CCCCCCCC/C=C\CCCCCCCC(=O)OC(CO)COP(=O)(O)O` (stereo not drawn) [Peptide 2-oleoyl-LPA], the pEC50_value (receptor gpr35_human (GPR35), Class A orphans) is listed as 7.5.
